Data published in patent US12186425B2, “Devices and methods for reducing cystine crystals in vivo” (University of Florida Research Foundation, Inc., priority 2017, dated 2025).
≈ marks a conversion by molar mass, not a printed value.

Experiments:
[1] = rabbit, in vivo; cited from earlier work
[2] = Solubility of cystine; assay type: physicochemical; details: phosphate buffered saline, aqueous buffer; read-out: saturated solution of cystine
[3] = reported; cited from earlier work

**Q.** For NCCS [cysteamine, β-mercaptoethylamine], which “eye drop concentration above which toxicity occurred” value [1] is on record?
**A.** > 0.55%

**Q.** For N[C@@H](CSSC[C@H](N)C(=O)O)C(=O)O [cystine], which solubility thermodynamic [2] is on record?
**A.** 110 µg/mL (≈ 458 µM)

**Q.** With CC(C)(C)NC[C@H](O)COc1nsnc1N1CCOCC1 [timolol] as the compound, how does the epithelium permeability [3] read?
**A.** 1.2×10^−7 m/s
